Data from the SangsterLogP compilation.

Row | SMILES | logP
1 | CC(C)(C)CCO | 1.57
2 | CCCCC(O)CCCC | 3.36
3 | CCCC(C)(C)CO | 2.39
4 | CCC(O)C(C)(C)C (stereo unspecified) | 2.27
5 | CC(C)(C)CCCO | 2.39
6 | CCC(CC)CO | 1.78
7 | CC(C)CC(C)O (stereo unspecified) | 1.67
8 | CC(C)CC(C)(C)O | 1.67
9 | CCCCC(O)CC (stereo unspecified) | 2.31
10 | CCCCCCCCCCCCCCCO | 6.64
11 | CCC(C)(C)CO | 1.57
12 | CC(C)CC(C)CO (stereo unspecified) | 2.19
13 | CCCCCC(O)CCC (stereo unspecified) | 3.36
14 | CC(C)C(O)C(C)C | 2.31
15 | CCCCCCC(O)CC (stereo unspecified) | 3.36
16 | CCCCCCCCCCCCCCO | 6.11
